US9284303B2, “Benzimidazole cannabinoid agonists bearing a substituted heterocyclic group” (priority 2006, dated 2016)

How the values were obtained:
[1] = biological target: T1, human CB2 (hCB2) receptor (Homo sapiens, UniProt P34972); assay: Inhibition of forskolin-activated cAMP production upon activation of hCB2 (HTRF), CHO-K1 cells; type: cell-based; conditions: for ratio CB2 agonism over CB1 agonism: Table C-1, selectivity hCB2 over hCB1; for ratio CB2 over CB1 agonism: Table C-3, comparison of art compounds A to E with compounds of the invention; for EC50: hCB2-CHO-K1 cells, forskolin-activated cAMP, pEC50=-log(EC50), read-out: CB2 pEC50 (converted)
T1 construct: expressed in transfected cells; host or cells: CHO-K1
T1 sequence (P34972 whole entry): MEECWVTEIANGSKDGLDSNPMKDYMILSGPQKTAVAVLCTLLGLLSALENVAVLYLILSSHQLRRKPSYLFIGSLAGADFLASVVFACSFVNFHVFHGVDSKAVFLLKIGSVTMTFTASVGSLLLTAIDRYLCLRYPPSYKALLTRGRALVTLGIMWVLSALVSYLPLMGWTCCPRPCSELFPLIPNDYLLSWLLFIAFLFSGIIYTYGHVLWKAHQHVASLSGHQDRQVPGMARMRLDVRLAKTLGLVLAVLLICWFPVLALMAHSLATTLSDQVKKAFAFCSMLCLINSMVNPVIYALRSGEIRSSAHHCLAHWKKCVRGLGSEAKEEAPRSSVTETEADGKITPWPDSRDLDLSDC

[2] = biological target: T2, human CB1 (hCB1) receptor (Homo sapiens, UniProt P21554); assay: Inhibition of forskolin-activated cAMP production upon activation of hCB1 (HTRF), CHO-K1 cells; type: cell-based; conditions: CB1 pEC50, hCB1-CHO-K1 cells, forskolin-activated cAMP, pEC50=-log(EC50)
T2 construct: expressed in transfected cells; host or cells: CHO-K1
T2 sequence (P21554 whole entry): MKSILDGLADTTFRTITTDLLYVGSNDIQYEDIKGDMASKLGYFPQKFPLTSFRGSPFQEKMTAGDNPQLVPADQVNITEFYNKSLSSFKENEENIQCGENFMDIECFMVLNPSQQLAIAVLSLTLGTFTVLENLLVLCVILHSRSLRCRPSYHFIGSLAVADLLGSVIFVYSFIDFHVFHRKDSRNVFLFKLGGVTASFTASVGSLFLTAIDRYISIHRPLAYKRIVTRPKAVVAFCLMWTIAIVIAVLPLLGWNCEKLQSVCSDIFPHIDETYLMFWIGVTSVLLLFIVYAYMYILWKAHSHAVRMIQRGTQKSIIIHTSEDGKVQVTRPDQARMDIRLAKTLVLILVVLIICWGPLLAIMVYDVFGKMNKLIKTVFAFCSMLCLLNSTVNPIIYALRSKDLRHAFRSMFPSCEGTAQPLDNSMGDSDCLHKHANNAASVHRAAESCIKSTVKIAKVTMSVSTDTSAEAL
Procedure, shortened: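 CHO-K1 cells stably expressing hCB1 (20,000/well) were in HBSS stimulation buffer (1 mM IBMX, 10 mM MgCl2, 0.1% BSA, pH 7.4), with 6 μM forskolin in the compound buffer, 30 min at room temperature in the dark. cAMP was read as HTRF 665/620 ratio, normalized to DMSO and CP55490. Outputs were pEC50 and inhibition at 10 μM relative to CP55490.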

Row | Structure (SMILES) | ratio CB2 agonism over CB1 agonism [1] | ratio CB2 over CB1 agonism [1] | EC50 [1] [nM] | melting point [°C] | EC50 [2] [nM] | ratio CB2 agonism over CB1 agonism ([1]; listed as 62)
1 | CC(C)(C)c1nc2cc(S(=O)(=O)c3ccc(O)nc3)ccc2n1CC1CCOCC1 [Co. No. 1] | >1995 | 1995 | 5.01 | 251 | > 10000 | –
2 | CC(=O)Nc1cc(S(=O)(=O)c2ccc3c(c2)nc(C(C)(C)C)n3CC2CCOCC2)cc[n+]1[O-] [Co. No. 96] | – | – | 2 | 247.2 | > 10000 | –
3 | CC(C)(C)c1nc2cc(S(=O)(=O)c3ccc(S(=O)(=O)N4CCOCC4)cn3)ccc2n1CC1CCOCC1 [Co. No. 66] | >676 | – | 14.8 | 224 | > 10000 | –
4 | CN(C)CCCOc1cc(S(=O)(=O)c2ccc3c(c2)nc(C(C)(C)C)n3CC2CCOCC2)ccn1 [Co. No. 129] | 617 | – | 15.5 | 119.4 | 9550 | –
5 | CO[C@H]1CC[C@@H](Cn2c(C(C)(C)C)nc3cc(S(=O)(=O)c4ccnc(F)c4)ccc32)CC1 [Co. No. 162] | >27542 | – | 0.363 | 133.5 | > 10000 | –
6 | CC(C)(C)c1nc2cc(S(=O)(=O)c3ccc(C(F)(F)F)cn3)ccc2n1CC1CCOCC1 [Co. No. 99] | 700 | – | 1.32 | 140.5 to 142.3 | 933 | –
7 | CC(=O)c1ccc(S(=O)(=O)c2ccc3c(c2)nc(C(C)(C)C)n3CC2CCOCC2)nc1 [Co. No. 4] | 1679 | 1679 | 1.91 | > 120 | 3240 | –
8 | COC(=O)c1ccc(S(=O)(=O)c2ccc3c(c2)nc(C(C)(C)C)n3CC2CCOCC2)nc1 [Co. No. 30] | 3055 | – | 1.7 | 195 to 197 | 5250 | –
9 | CC(=O)Nc1ccc(S(=O)(=O)c2ccc3c(c2)nc(C(C)(C)C)n3CC2CCOCC2)nn1 [Co. No. 101] | 58 | – | 2.51 | 290.1 | 148 | –
10 | CC(C)(C)c1nc2cc(S(=O)(=O)c3ccc(S(C)(=O)=O)nc3)ccc2n1CC1CCCCC1 [Co. No. 27] | >14125 | – | 0.708 | 200 | > 10000 | –
11 | CC(C)(C)c1nc2cc(S(=O)(=O)c3ccc(C(N)=O)s3)ccc2n1CC1CCOCC1 [Co. No. 73] | 84 | – | 1.38 | 209.4 | 117 | –
12 | COc1ccc(S(=O)(=O)c2ccc3c(c2)nc(C(C)(C)C)n3CC2CCOCC2)nn1 [Co. No. 11] | 48 | – | 1.26 | 174 to 180 | 60.3 | –
13 | CC(C)(C)c1nc2cc(S(=O)(=O)c3ccn(CC(F)(F)F)c(=O)c3)ccc2n1CC1CCOCC1 [Co. No. 97] | 2065 | – | 1.86 | 152.9 | 3890 | –
14 | CC(C)(C)c1nc2cc(S(=O)(=O)c3sc(S(C)(=O)=O)cc3Br)ccc2n1CC1CCOCC1 [Co. No. 62] | – | – | 0.589 | 200 | 1950 | 3299
15 | CC(C)(C)c1nc2cc(S(=O)(=O)c3ccnc(F)c3)ccc2n1CC1CCC(=O)CC1 [Co. No. 134] | 2786 | – | 1.38 | 164.8 | 3800 | –
16 | CC(C)(C)c1nc2cc(S(=O)(=O)c3cncc(C#N)c3)ccc2n1CC1CCOCC1 [Co. No. 43] | 1622 | – | 1 | 240 | 1620 | –
17 | CC(=O)Nc1cc(S(=O)(=O)c2ccc3c(c2)nc(C(C)(C)C)n3CC2CCOCC2)ccn1 [Co. No. 22] | 1758 | 1758 | 1.12 | 262.3 | 2000 | –
